The test system of one assay is postmenopausal person. As to conditions: singular use; cited from earlier work.
The next assay concerns the target T1, recombinant human ERα (Homo sapiens, UniProt P03372).
T1 construct: purchased PanVera Corporation (Madison, Wis.); host or cells: baculovirus-mediated expression system
T1 sequence (P03372 1-595): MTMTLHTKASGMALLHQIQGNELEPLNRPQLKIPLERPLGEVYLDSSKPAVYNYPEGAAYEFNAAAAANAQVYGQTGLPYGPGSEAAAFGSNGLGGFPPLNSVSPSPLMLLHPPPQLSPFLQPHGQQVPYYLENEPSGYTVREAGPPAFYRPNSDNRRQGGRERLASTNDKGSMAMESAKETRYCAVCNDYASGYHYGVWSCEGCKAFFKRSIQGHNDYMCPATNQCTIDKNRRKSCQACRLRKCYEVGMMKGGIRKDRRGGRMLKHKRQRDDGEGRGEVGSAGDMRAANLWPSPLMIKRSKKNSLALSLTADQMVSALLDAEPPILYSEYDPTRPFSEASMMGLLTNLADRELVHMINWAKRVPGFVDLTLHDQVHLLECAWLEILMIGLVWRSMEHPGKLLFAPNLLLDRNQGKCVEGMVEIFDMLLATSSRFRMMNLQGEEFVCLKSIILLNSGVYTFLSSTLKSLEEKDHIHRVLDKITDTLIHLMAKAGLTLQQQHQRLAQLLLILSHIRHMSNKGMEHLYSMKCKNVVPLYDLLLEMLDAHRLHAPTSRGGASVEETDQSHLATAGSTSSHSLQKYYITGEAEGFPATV
As to the kind of experiment: ERα binding assay: competition of [3H]E2 binding by competing estrogens. Conditions: for IC50: read-out: ERα IC50.

The target in the next assay is T2, recombinant human ERβ (Homo sapiens, UniProt Q92731).
T2 construct: purchased PanVera Corporation (Madison, Wis.); host or cells: baculovirus-mediated expression system
T2 sequence (Q92731 whole entry): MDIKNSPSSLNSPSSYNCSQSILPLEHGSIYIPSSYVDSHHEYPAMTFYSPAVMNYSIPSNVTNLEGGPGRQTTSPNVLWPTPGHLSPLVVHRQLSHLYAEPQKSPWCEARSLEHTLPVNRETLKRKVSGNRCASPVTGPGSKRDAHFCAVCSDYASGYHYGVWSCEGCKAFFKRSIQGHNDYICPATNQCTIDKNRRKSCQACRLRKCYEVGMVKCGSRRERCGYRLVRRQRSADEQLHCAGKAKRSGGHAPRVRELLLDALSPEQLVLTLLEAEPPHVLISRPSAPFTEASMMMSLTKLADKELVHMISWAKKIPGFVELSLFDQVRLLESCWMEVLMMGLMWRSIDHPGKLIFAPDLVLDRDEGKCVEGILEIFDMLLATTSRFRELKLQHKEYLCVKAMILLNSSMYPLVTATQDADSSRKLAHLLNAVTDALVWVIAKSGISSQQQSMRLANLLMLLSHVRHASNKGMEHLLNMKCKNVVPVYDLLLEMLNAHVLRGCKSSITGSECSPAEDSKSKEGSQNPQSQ
As to the kind of experiment: ERβ binding assay: competition of [3H]E2 binding by competing estrogens. As to conditions: for IC50: read-out: ERβ IC50.

The text below walks through data of patent US20080293683A1, “Hormone Replacement Therapy” (University of Kansas Medical Center, priority 2007, published 2008).

Some results are limits rather than exact numbers.

For `O=c1c(-c2ccc(O)cc2)coc2cc(O)cc(O)c12` [Genistein], the “effectiveness as hormone replacement therapy” value with postmenopausal person was “ineffective”.
Regarding `CC[C@H](c1ccc(O)cc1)[C@@H](CC)c1ccc(O)cc1` [Hexestrol, reference compound], the “RBAα % (relative binding affinity for ERα, of E2)” value on recombinant human ERα (calculated against E2 = 100) was 31%. In addition, the RBAα/RBAβ at recombinant human ERα (ratio of relative binding affinities ERα over ERβ) is listed as 0.5. Besides, the results for the IC50 on recombinant human ERα and on recombinant human ERβ were 0.0363 µM and 0.0186 µM, respectively. In addition, at recombinant human ERβ (calculated against E2 = 100), the “RBAβ (%) (relative binding affinity for ERβ, of E2)” value was 60%.
In the case of `O=c1c(O)c(-c2cc(O)c(O)c(O)c2)oc2cc(O)cc(O)c12` [Myricetin, reference compound], the “binding affinity for ERα (in words)” value on recombinant human ERα (concentrations up to 1000 nM) is on record as “no appreciable binding affinity”. Further, the concentration for half-maximal inhibition (IC50) on recombinant human ERα and on recombinant human ERβ was above 1 µM throughout. Moreover, at recombinant human ERβ (concentrations up to 1000 nM), the “binding affinity for ERβ (in words)” value is given as “no appreciable binding affinity”.
